US20130040882A1, “USE OF FIBROBLAST GROWTH FACTOR FRAGMENTS” (NOVARTIS AG, priority 2003, published 2013)

Assays:
[1] = system: selected transcripts; experiment: Salmon calcitonin/PTS893 monkey study: real-time PCR of selected transcripts; type: in vivo, cynomolgus monkeys (Macaca fascicularis); settings: normalized to β-actin
From the text: Based on the DNA microarray data a set of transcripts was chosen for quantitative analysis by real time-PCR(RT-PCR).
Briefly, the method exploits the SyBr Green dye which intercalates into double stranded DNA. Accumulation of PCR products is detected directly by monitoring the increase in fluorescence of the SyBr Green dye. Reactions are characterised by the point in time during cycling when amplification of a PCR product is first detected rather than the amount of PCR product accumulated after a fixed number of cycles. The higher the starting copy number of nucleic acid target, the sooner a significant increase in fluorescence is observed.
From each RNA sample, cDNA was made using an Applied Biosystem kit (Applied Biosystems # N808-0234) following the recommendation of the manufacturer. The PCR mixture was prepared using the SyBr Green Universal PCR Master Mix (Applied Biosystems #4309155) as follows: 5 μl cDNA template, 400 nM of each primer, 0.2 mM deoxynucleotide triphosphates, 1 mM MgC12 and 0.5 U Taq DNA polymerase, 5 μl SyBr Green PCR buffer and RNase free water up to a final volume of 50 μl. The PCR was performed using the ABI Prism 7700 Sequence Detection System, after a step at 95° C. for 10 min, the step-cycle program was performed for a total of 40 cycles as follows: 95° C. for 30 s, 60° C. for 1 min. A negative control was included: PCR reaction mixture with water in place of the cDNA sample.
The initial template concentration was determined based on the threshold cycle. […] Quantification was performed by calculating the unknown target concentration relative to an absolute standard and by normalizing to a validated endogenous control such as a housekeeping gene (β-actin). Results are presented as percentage of control, once the ratio between the numbers of molecule for the gene of interest divided by the number of molecule for beta-actin has been calculated.
Based on the DNA microarray data the following set of transcripts was chosen for quantitative analysis by RT-PCR: adhesion receptor CD44, angiopoietin, bone morphogenetic protein 5, carbonic anhydrase II, cartilage oligomeric matrix protein, cathepsin K, osteopontin, pre-pro-alpha-2 type I collagen, Spi-B and Y-box binding protein.

[2] = system: transcript levels in several organs; experiment: In vivo gene expression profiling screen of peptides in mice (Example I); settings: administration to mice
Protocol: In this EXAMPLE, 100 unknown chemically synthesized peptides are functionalized using the discovery method of the invention. Most of these peptides are present in human plasma.
As a control, twenty reference drugs are concurrently investigated with the discovery method of the invention. For this screening, one control and four treated groups of six males are treated for two weeks by daily administration by the subcutaneous route of the proteins. The reference drugs can be active for treating conditions in the areas of glaucoma, neuroprotection, neovascularisation, antiangiogenesis, acne, asthma and allergy, cardiovascular diseases, neurological disorder, pain, diabetes, hypercholesterolemia, osteoporosis and oncology.
The expectations from those selected active peptides are that (a) several potential therapeutic drugs could be identified; (b) target peptides for therapeutic antibodies could be identified; (c) new targets for research, deduced from the reconstructed biochemical pathways, could be identified; and (d) biomarkers, to be used to develop diagnostic tests could be identified. […] The protein/peptide selection rate is approximately 20%. The selection/prioritization criteria are the type of activity, the therapeutic interest and the suspected toxicity.

[3] = system: retinal neuronal layers
Protocol: The total thickness of the outer nuclear layer, the inner nuclear layer and the ganglion cell layer is measured using a standardized magnification after paraffin embedding and hematoxylin and eosin (HE)-staining. Three sections of each eye are measured at three locations each. […] Sections are encoded for evaluation.

[4] = right eye (FGF23CTP), average of all measurements of three animals, x200 magnification

## Leu8, Asp10, Lysll, A1a16, G1n18, Thr33, A1a34 human PTH 1-34 [PTS893, Leu8, Asp10, Lysll, A1a16, G1n18, Thr33, A1a34 human PTH 1-34 [hPTH(1-34)]]
[1]; bone
  Real Time PCR Treatment Effect: Y-box binding protein (bone) (36140_at): +26 % respect to control
[1]
  Real Time PCR Treatment Effect: Spi-B (35883_at): −18 % respect to control
  Real Time PCR Treatment Effect: adhesion receptor CD44 (1372_at): No change
  Real Time PCR Treatment Effect: angiopoietin-1 (1929_at): No change
  Real Time PCR Treatment Effect: bone morphogenetic protein 5 (1831_at): +18 % respect to control
  Real Time PCR Treatment Effect: carbonic anhydrase II (40095_at): No change
  Real Time PCR Treatment Effect: cartilage oligomeric matrix protein (40161_at): No change
  Real Time PCR Treatment Effect: cathepsin K (128_at): No change
  Real Time PCR Treatment Effect: osteopontin (2092_s_at): No change
  Real Time PCR Treatment Effect: pre-pro-alpha-2 type I collagen (32306_g_at): +62 % respect to control

B1: FGF23CTP: unique 75-mer COOH-terminal peptide of FGF-23, SEQ ID NO: 2 (peptide, listed as Homo sapiens)
chain: HTRSAEDDSERDPLNVLKPRARMTPAPASCSQELPSAEDNSPMASDPLGVVRGGRVNTHAGGTGPEGCRPFAKFI
[2]
  Transcript level changes in several organs (activity): active
[3]; five days after injection
  Thickness of the inner nuclear layer, outer nuclear layer, ganglion cell layer vs PBS: no marked difference
[3]; [4]
  Ganglion cell layer thickness, average: 2.25 mm
  Inner nuclear layer thickness, average: 6 mm
  Outer nuclear layer thickness, average: 10.63 mm
[3]; three animals, five days after injection
  Neuronal damage in the eye: not to induce any neuronal damage
